Data as given in BindingDB's records for doi:10.1016/j.bmcl.2012.05.078 (University of Milan, 2012).

Experiment: Inhibition of Met-triggered cell scattering in HGF-stimulated MDCK cells preincubated for overnight before HGF challenge measured after 24 to 48 hrs

IC50	Structure (SMILES)
200 nM	O=C(Cc1cc(C(F)(F)F)cc(C(F)(F)F)c1)N[C@@H](Cc1ccccc1)C(=O)Nc1ccc(-c2cn3c(n2)sc2ccccc23)cc1
200 nM	O=C(Cc1cc(C(F)(F)F)cc(C(F)(F)F)c1)N[C@H](Cc1ccccc1)C(=O)Nc1ccc(-c2cn3c(n2)sc2ccccc23)cc1
600 nM	O=C(Cc1cc(C(F)(F)F)cc(C(F)(F)F)c1)NC(Cc1ccccc1)c1cn(-c2ccc(-c3cn4c(n3)sc3ccccc34)cc2)nn1 (centres undefined)
200 nM	Cc1[nH]c(/C=C2\C(=O)Nc3ccc(S(=O)(=O)N(C)c4cccc(Cl)c4)cc32)c(C)c1C(=O)N1CCN(C)CC1 [(3Z)-N-(3-CHLOROPHENYL)-3-({3,5-DIMETHYL-4-[(4-METHYLPIPERAZIN-1-YL)CARBONYL]-1H-PYRROL-2-YL}METHYLENE)-N-METHYL-2-OXOINDOLINE-5-SULFONAMIDE]
